The text below walks through data of patent USRE35904E, “Method and probes for detecting nucleoside transporter and method for producing the probes” (Governors of the University of Alberta, priority 1995, dated 1998).

In experiment [1] the target is T1, es nucleoside transporter (Mus musculus, UniProt Q9JIM1).
T1 construct: endogenous in cells; host or cells: L1210/B23.1 mouse leukemia cells
T1 sequence (Q9JIM1 1-460): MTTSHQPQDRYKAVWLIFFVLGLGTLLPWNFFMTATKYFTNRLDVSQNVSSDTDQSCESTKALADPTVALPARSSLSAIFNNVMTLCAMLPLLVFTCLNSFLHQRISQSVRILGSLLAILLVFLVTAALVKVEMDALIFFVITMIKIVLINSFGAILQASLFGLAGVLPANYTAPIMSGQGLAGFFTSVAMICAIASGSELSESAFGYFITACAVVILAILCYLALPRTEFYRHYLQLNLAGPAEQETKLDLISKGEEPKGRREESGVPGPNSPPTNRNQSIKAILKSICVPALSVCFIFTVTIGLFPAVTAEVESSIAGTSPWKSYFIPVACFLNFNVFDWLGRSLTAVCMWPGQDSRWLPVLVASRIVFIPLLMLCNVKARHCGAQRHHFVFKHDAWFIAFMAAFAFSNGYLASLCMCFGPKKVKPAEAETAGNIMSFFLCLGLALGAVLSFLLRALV
Description: [3H]NBMPR equilibrium binding to L1210/B23.1 cells and its inhibition by SAENTA-fluorescein probes. Conditions: 22°; for Ki: replots of Kd(app)/Bmax versus [probe], read-out: Ki (mean ± S.D.).

Experiment [2] addresses T2, es nucleoside transporter (Sus scrofa, UniProt A0A287B2T6).
T2 construct: immediately processed by conventional methods for recovery of erythrocytes; tissue Gainers, Edmonton, Alberta, Canada (blood of domestic pigs); host or cells: pig erythrocytes, unsealed ghosts
Description: Inhibition of site-specific [3H]NBMPR binding to unsealed pig erythrocyte ghosts. The settings on record: for IC50: 2 nM [3H]NBMPR, 20 min, 22° C., pH 7.4, read-out: IC50 for inhibition of site-bound [3H]NBMPR; for inhibition of NBMPR binding to the nucleoside transporter: result in words. The procedure:
Blood from adult domestic pigs (Gainers, Edmonton, Alberta, Canada) was collected into 0.2 vol. of anticoagulant solution (90 mM-sodium citrate/16 mM-citric acid/16 mM-monosodium phosphate/2 mM-adenine/12 mM-inosine) and immediately processed by conventional methods for recovery of erythrocytes.
Unsealed ghosts were prepared at 4° C. by the procedure of Steck & Kant, (1974), Methods in Enzymology, vol. 31, pp. 172-180, modified by the inclusion of 0.1 mM phenylmethane sulphonyl fluoride, and stored at -70° C.
NBMPR was prepared as described by Paul, Chen & Paterson (1975), J. Med Chem., vol. 18, pp. 968-973. [G-^3 H]NBMPR (23 Ci/mmol), obtained from Moravek Biochemicals, Brea, CA., U.S.A., was purified by using a Spheri-10 RP18 100 mm×4.6 mm column (Brownlee Labs, Santa Clara, CA,. U.S.A.), eluted with a methanol/water gradient.
Binding to unsealed ghosts was determined by a filtration assay, as described by Agbanyo, Cass & Paterson (1988) Mol. Pharmacol., vol. 33, pp. 332-337. Assay mixtures (final volume, 1.2 ml; two samples per condition) contained 2 nM-[^3 H]NBMPR, graded concentrations of test compound and unsealed ghosts (10 μg of protein/ml) in 5 mM-sodium phosphate buffer, pH 7.4, at 22° C., and, for determination of non-specific binding, 5 μM non-radioactive NBMPR was present. After a 20 min incubation at 22° C., membrane material from 1 ml portions of assay mixtures was collected by vacuum filtration on Whatman GF/C microfibre filters, which were then rapidly washed three times with 2 ml portions of ice-cold 5 mM-sodium phosphate buffer. The filters were placed in scintillation vials and assayed for radioactivity after a 16 h incubation in 8 ml of Triton X-100-based scintillation fluid as described by Pande (1976) Anal. Biochem., vol. 74, pp. 25-34. Protein was determined by the bicinchoninic acid method of Smith et al. (1985) Anal. Biochem., vol. 150, pp. 76-85.
Correction for non-specific binding was determined by performing the assay in the presence of 5 μM-non radioactive NBMPR. Replicate mixtures contained ghosts, 2 nM-[^3 H]NBMPR, graded concentrations of SAENTA or acetyl SAENTA (prepared as in Example 1) and, in mixtures used for non-specific binding, 5 μM-non radioactive NBMPR. Values for [^3 H]NBMPR specifically bound in the presence of inhibitor are expressed as percentages of that bound in its absence.
IC50 values were determined from plots of % site-bound NBMPR in presence of test compound against concentration of test compound.

In experiment [3] the target is T3, nucleoside transporter (Homo sapiens, UniProt Q99808).
T3 construct: The human leukaemic cell line RC2a, of myelomonocytic origin; endogenous in cells; host or cells: RC2a human leukaemic (myelomonocytic) cells
T3 sequence (Q99808 1-456): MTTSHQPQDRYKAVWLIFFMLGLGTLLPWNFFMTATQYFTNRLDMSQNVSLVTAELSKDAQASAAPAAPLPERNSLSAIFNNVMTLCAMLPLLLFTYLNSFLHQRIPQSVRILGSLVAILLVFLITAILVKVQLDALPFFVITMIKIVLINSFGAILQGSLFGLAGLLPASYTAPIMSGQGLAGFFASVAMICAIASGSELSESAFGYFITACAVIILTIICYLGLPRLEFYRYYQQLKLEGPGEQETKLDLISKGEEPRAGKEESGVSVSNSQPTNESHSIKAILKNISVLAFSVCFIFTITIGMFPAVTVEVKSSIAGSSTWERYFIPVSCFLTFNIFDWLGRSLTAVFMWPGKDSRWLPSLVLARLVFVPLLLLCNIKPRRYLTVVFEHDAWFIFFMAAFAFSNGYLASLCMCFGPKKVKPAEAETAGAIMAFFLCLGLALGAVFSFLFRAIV
Description: Equilibrium binding of SAENTA-fluorescein probe to RC2a cells by flow cytometry, with displacement by NBMPR or dilazep.

The target in experiment [4] is T3, nucleoside transporter. As to the kind of experiment: Inhibition of [3H]cytosine arabinoside (araC) influx in RC2a leukaemic cells. The class given is cell-based. The procedure:
. Unlabelled NBMPR was supplied by Sigma (St. Louis, MO, U.S.A.). [^3 H]Cytosine arabinoside (araC) and [^14 C]polyethylene glycol were obtained from Amersham, Buckinghamshire, England. Dilazep was a gift from Roche, Dee Why, Australia. Incubations were carried out using imidazole-buffered saline (IBS; […], 5 mM KCl, 5 mM imidazole-Cl, 1 mM MgCl2 and 5 mM glucose, pH 7.4).
The human leukaemic cell line RC2a, of myelomonocytic origin (Bradley et al., 1982 Brit. J. Haematol., vol. 51, pp. 595-604) was maintained in RPMI 1640 medium containing 10% foetal calf serum, 2 mM glutamine, 20 mM HEPES (pH 7.4) (Flow Laboratories, Sydney, Australia) and 20 mg/l gentamycin sulphate (Roussell, Castle Hill, Australia). Cell densities were maintained below 5×10^5 /ml. Cells were collected by centrifugation and resuspended in buffered saline for assays.
Prior to measurement of [^3 H]araC uptake, RC2a leukaemic cells were treated at 20° C. for 10 min with graded concentrations (0-0.05 μM) of .[.SAENTA-x2 -fluorescein.]. .Iadd.SAENTA-X2-fluorescein .Iaddend.prepared as in Example 3. Treated cells (100 μl, 5×10^7 cells/ml) were added to [^3 H]araC (100 μl) in IBS medium in 1.5 ml centrifuge tubes to give a final araC concentration of 50 μM. [^3 H]araC uptake was ended 20 sec. later by the addition of 800 μl of ice-cold dilazep (750 μM) (Jamieson et al., 1989). Phthalate oil was added immediately and the tube spun at 8000 g for 2 min. Medium above the oil was aspirated, the tube walls washed, and the oil above the cell pellet removed. Pellets were solubilized using 0.5M NaOH and the [^3 H]araC contents were measured by liquid scintillation counting. […]
The ability of .[.SAENTA-x2 -fluorescein.]. .Iadd.SAENTA-X2-fluorescein .Iaddend.to inhibit influx of nucleoside was assessed in cultured RC2a leukaemic cells by treating the cells for 10 min with graded concentrations of .[.SAENTA-x2 -fluorescein.]. .Iadd.SAENTA-X2-fluorescein .Iaddend.(0 to 0.25 μM). Uptake rates of araC (50 μM) were then determined over 20 s at 20° C. as described above.

The target of experiment [5] is T1, es nucleoside transporter. As to the kind of experiment: Flow cytometric staining of L1210/B23.1 cells (es nucleoside transporter-expressing) by SAENTA-fluorescein probe. The class given is cell-based. Conditions: 40 nM 5-(SAENTA-X2)-fluorescein, 10 min, 4° C., pH 8.0, FIG. 8. The procedure:
Flow cytometric measurements of binding of .[.SAENTA-x2 -fluorescein.]. .Iadd.SAENTA-X2-fluorescein .Iaddend.prepared as in Example 3 was carried out as in Example 4 using two clonal lines of cultured mouse leukemia L 1210 cells, L 1210/B23.1 and L 1210/MA-27.1. L 1210/B23.1 expresses NBMPR binding sites and nuclesoside transporter activity whereas L 1210/MA-27.1 cells lack both of these features.
Staining conditions were chosen to minimise non-specific fluorescence signals from L 1210/MA-27.1 cells treated with the nucleoside.
Cells were exposed for 10 min at 4° C. to phosphate-buffered (pH 8.0) salts medium containing 40 nM .[.5(SAENTA-xx2)fluorescein.]. .Iadd.5-(SAENTA-X2)-fluorescein .Iaddend.prior to flow cytometric analysis in a BD FACSan instrument; 10^5 cells were analysed. Cells in replicate assay mixtures were also exposed for 5 min at 22° C. to medium containing 10 μM NBMPR and then for 10 min at 4° C. to medium containing both NBMPR and .[.5-SAENTA-x2)-fluorescein.]. .Iadd.5-(SAENTA-X2)-fluorescein.Iaddend..
(a) Clonal lines of mouse leukemia cells were exposed for 10 min at 4° C. to phosphate buffered (pH 8.0) saline containing […] .[.5-(SAENTA-x2)-fluorescein.]. .Iadd.5-(SAENTA-X2)-fluorescein .Iaddend.(prepared as in Example 3) prior to flow cytometric analysis in a BD FACScan instrument; 10^4 cells were analysed. Cells in replicate mixtures were also exposed for 5 min at 22° C. to medium containing 10 μM NBMPR and then for 10 min at 4° C. to medium containing both NBMPR and .[.5-(SAENTA-x2)-fluorescein.]. .Iadd.5-(SAENTA-X2)-fluorescein.Iaddend.. L 1210/B23.1 cells express the es nucleoside transport system whereas L 1210/MA-27.1 cells lack that activity.
For orientation: Flow cytometry measures light scatter and fluorescence of single cells or particles in a stream.

In experiment [6] the target is T3, nucleoside transporter. As to the kind of experiment: Inhibition of [3H]NBMPR binding to RC2a leukaemic cells. Conditions: 30 min, 37° C., FIG. 5; read-out: half-maximal inhibition of site-specific [3H]NBMPR binding.
Description: [^3 H]NBMPR from Moravek Biochemicals Brea, CA, U.S.A. was purified by reverse phase HPLC using methanol-water as solvent. Unlabelled NBMPR was supplied by Sigma (St. Louis, MO, U.S.A.). [^3 H]Cytosine arabinoside (araC) and [^14 C]polyethylene glycol were obtained from Amersham, Buckinghamshire, England. Dilazep was a gift from Roche, Dee Why, Australia.
The free [^3 H]NBMPR concentration in the medium above the oil was also measured. Non-specific binding of [^3 H]NBMPR was measured in parallel incubations of cells treated for 5 min at 37° C. with 5 μM NBMPR before the addition of [^3 H]NBMPR. Specific binding was calculated by subtracting the amount of non-specific binding (determined in the presence of 5 μM unlabelled NBMPR) from total [^3 ]NBMPR binding in all analyses.

T2 sequence (A0A287B2T6 1-457): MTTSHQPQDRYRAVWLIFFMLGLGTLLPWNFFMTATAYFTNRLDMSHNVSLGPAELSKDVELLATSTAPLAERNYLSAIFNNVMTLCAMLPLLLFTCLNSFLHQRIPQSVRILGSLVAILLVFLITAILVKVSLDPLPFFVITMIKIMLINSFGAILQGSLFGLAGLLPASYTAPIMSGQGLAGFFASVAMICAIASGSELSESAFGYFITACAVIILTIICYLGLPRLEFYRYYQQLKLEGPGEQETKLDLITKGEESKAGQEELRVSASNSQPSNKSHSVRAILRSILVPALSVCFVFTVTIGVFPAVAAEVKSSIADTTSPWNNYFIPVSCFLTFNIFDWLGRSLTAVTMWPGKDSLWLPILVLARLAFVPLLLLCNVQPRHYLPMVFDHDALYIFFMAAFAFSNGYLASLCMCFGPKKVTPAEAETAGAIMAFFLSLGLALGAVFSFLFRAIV

As to `O=C(CCCCCNC(=O)c1ccc2c(c1)C(=O)OC21c2ccc(O)cc2Oc2cc(O)ccc21)NCCSC[C@H]1O[C@@H](n2cnc3c(NCc4ccc([N+](=O)[O-])cc4)ncnc32)[C@H](O)[C@@H]1O` [5-(SAENTA-X8)-fluorescein, 5'-S-[2-(6-(Fluorescein-5-carboxamido)hexanoylamino)ethyl]-N^6-(4-nitrobenzyl)-5'-thioadenosine], in experiment [1], the Ki came out at 0.8 ± 0.21 nM.

For the compound `O=C1OC2(c3ccc(O)cc3Oc3cc(O)ccc32)c2cc(NC(=S)NCCSC[C@H]3O[C@@H](n4cnc5c(NCc6ccc([N+](=O)[O-])cc6)ncnc54)[C@H](O)[C@@H]3O)ccc21` [6-(SAENTA-X2)-fluorescein], the Ki in experiment [1] worked out at 9.9 ± 2.8 nM.

As for `O=C(CCCCCNC(=O)c1ccc2c(c1)C1(OC2=O)c2ccc(O)cc2Oc2cc(O)ccc21)NCCSC[C@H]1O[C@@H](n2cnc3c(NCc4ccc([N+](=O)[O-])cc4)ncnc32)[C@H](O)[C@@H]1O` [6-(SAENTA-X8)-fluorescein, 5'-S-[2-(6-(Fluorescein-6-carboxamido)hexanoylamino)ethyl]-N^6-(4-nitrobenzyl)-5'-thioadenosine], the Ki in experiment [1] was found to be 1.7 ± 0.5 nM.

In turn, `O=[N+]([O-])c1ccc(CSc2ncnc3c2ncn3C2OC(CO)C(O)C2O)cc1` (centres unmarked) [NBMPR, nitrobenzyl thioinosine, reference compound] returned a Kd in experiment [1] (Scatchard analysis (LIGAND)) of 0.085 ± 0.015 nM.

With `NCCSC[C@H]1O[C@@H](n2cnc3c(NCc4ccc([N+](=O)[O-])cc4)ncnc32)[C@H](O)[C@@H]1O` [SAENTA, 5'-S-(2-aminoethyl)-6-N-(4-nitrobenzyl)-5'-thioadenosine], in experiment [2], the IC50 was 330 nM and the “inhibition of NBMPR binding to the nucleoside transporter” value was “strong inhibition”.

For `O=C(O)c1cc(NC(=S)NCCSC[C@H]2O[C@@H](n3cnc4c(NCc5ccc([N+](=O)[O-])cc5)ncnc43)[C@H](O)[C@@H]2O)ccc1-c1c2ccc(=O)cc-2oc2cc(O)ccc12` [SAENTA-X2-fluorescein], at nucleoside transporter [3] (RC2a cells 1×10^5/ml, room temperature, n=3, ±1 SD, FIG. 7, read-out: concentration giving half-maximal binding (NBMPR-sensitive)), the EC50 came to 6.2 ± 1 nM. The “time to equilibrium of cell bound fluorescence” value on nucleoside transporter [3] (all ligand concentrations, room temperature) was determined as 10 min. For the same compound, the “time to equilibrium between bound and free probe” value on nucleoside transporter [3] (lowest ligand concentration, room temperature) is reported as 10 min. Also, the IC50 is ~40 nM at nucleoside transporter [4] (50 μM araC, 20° C., 10 min pretreatment) and 50 to 100 nM on nucleoside transporter [6]. Further, the “inhibition of influx of [3H]araC” value against nucleoside transporter [4] (50 μM araC, 20° C., 10 min exposure to 0.25 μM probe) is 90%. In addition, the “distinction of L1210/B23.1 from L1210/MA-27.1 cells by cell staining” value in experiment [5] is “able to distinguish clearly”.

Regarding `CC(=O)NCCSC[C@H]1O[C@@H](n2cnc3c(NCc4ccc([N+](=O)[O-])cc4)ncnc32)[C@H](O)[C@@H]1O` [acetyl SAENTA], in experiment [2], the IC50 was found to be 76 nM and the “inhibition of NBMPR binding to the nucleoside transporter” value is “strong inhibition”.

`COc1cc(C(=O)OCCCN2CCCN(CCCOC(=O)c3cc(OC)c(OC)c(OC)c3)CC2)cc(OC)c1OC` [dilazep, reference compound]: the “displacement of SAENTA-X2-fluorescein binding” value on nucleoside transporter [3] (2 μM dilazep versus 1 μM NBMPR) was “as effective as NBMPR”. For the same compound, on nucleoside transporter [4] (dilazep added to cells prior to [3H]araC), the “effectiveness in stopping araC influx” value was “effectiveness of dilazep in stopping influx was confirmed”.

In general, Kd refers to the concentration at which binding is half-saturated. Low values mean tighter binding, high ones weaker binding.
